Literature values as cited in US20250288585A1, “SYNERGISTIC COMPOSITIONS FOR ENHANCED HAIR GROWTH AND METHODS FOR TREATING HAIR LOSS” (The Johns Hopkins University, priority 2024, published 2025).

Assays:
[1] = liposomal hydrogel system
[2] = test system: follicular sulfotransferase; settings: topical 0.1% tretinoin, plucked hairs, in vitro
[3] = test system: subjects with androgenetic alopecia; settings: topical tretinoin alone

Row | SMILES | permeation through skin ex vivo [1] | effect on expression of follicular sulfotransferase [2] | subjects with some hair regrowth [3]
1 | CC1=C(/C=C/C(C)=C/C=C/C(C)=C/C(=O)O)C(C)(C)CCC1 [tretinoin, all-trans-retinoic acid] | retained on the skin | influences the expression of follicular sulfotransferase | approximately 58%
2 | Nc1cc(N2CCCCC2)nc(N)[n+]1[O-] [minoxidil] | enhanced the permeation | – | –
